Results published in ChEMBL document CHEMBL5291721, “A preclinical secondary pharmacology resource illuminates target-adverse drug reaction associations of marketed drugs” (Nat Commun, 2023).

Experiments:
[1] = target: Voltage-dependent N-type calcium channel subunit alpha-1B (Rattus norvegicus, UniProt Q02294); format: functional
[2] = target: Neuronal acetylcholine receptor subunit alpha-4 (Homo sapiens, UniProt P43681)
Cannabinoid receptor 1 [3] = target: T1, Cannabinoid receptor 1 (Homo sapiens, UniProt P21554); format: functional, cell-based
Cannabinoid receptor 1 [4] = target: T1, Cannabinoid receptor 1
D(1A) dopamine receptor [5] = target: T2, D(1A) dopamine receptor (Homo sapiens, UniProt P21728); format: functional, cell-based
D(1A) dopamine receptor [6] = target: T2, D(1A) dopamine receptor
D(1A) dopamine receptor [7] = target: T2, D(1A) dopamine receptor; remark: listed apart in the source
D(3) dopamine receptor [8] = target: T3, D(3) dopamine receptor (Homo sapiens, UniProt P35462)
D(4) dopamine receptor = target: T4, D(4) dopamine receptor (Homo sapiens, UniProt P21917)
T4 sequence (P21917 whole entry): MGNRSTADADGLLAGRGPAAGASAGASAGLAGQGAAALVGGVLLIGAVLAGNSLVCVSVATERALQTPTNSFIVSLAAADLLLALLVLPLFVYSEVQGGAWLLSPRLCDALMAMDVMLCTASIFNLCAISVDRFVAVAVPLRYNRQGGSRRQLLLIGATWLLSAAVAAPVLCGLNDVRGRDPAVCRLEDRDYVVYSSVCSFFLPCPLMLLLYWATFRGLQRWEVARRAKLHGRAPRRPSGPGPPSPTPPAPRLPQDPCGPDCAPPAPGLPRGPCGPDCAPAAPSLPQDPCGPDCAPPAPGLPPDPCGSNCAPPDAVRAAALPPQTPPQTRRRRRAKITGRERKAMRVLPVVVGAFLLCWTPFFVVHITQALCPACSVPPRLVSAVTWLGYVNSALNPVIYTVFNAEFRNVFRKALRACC

[9] = target: T5, Gamma-aminobutyric acid receptor subunit alpha-1 (Rattus norvegicus, UniProt P62813)
[10] = target: T5, Gamma-aminobutyric acid receptor subunit alpha-1; remark: listed apart in the source
[11] = target: T5, Gamma-aminobutyric acid receptor subunit alpha-1; format: functional
[12] = target: Glutamate receptor ionotropic, NMDA 1 (Rattus norvegicus, UniProt P35439)
[13] = target: T6, 5-hydroxytryptamine receptor 1A (Homo sapiens, UniProt P08908); format: functional, cell-based
T6 sequence (P08908 whole entry): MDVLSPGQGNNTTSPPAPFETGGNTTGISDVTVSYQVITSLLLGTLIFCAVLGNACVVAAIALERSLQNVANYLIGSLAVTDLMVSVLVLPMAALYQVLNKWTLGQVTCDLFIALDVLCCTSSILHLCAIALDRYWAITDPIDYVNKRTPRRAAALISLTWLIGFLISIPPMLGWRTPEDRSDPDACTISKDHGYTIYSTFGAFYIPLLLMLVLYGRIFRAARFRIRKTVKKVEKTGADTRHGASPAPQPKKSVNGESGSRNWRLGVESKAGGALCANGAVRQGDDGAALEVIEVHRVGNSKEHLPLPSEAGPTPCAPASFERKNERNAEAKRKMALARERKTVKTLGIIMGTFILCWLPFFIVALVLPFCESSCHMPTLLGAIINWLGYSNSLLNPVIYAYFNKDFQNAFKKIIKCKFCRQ

[14] = target: T6, 5-hydroxytryptamine receptor 1A; format: functional, cell-based; remark: listed apart in the source
[15] = target: T6, 5-hydroxytryptamine receptor 1A
[16] = target: T7, 5-hydroxytryptamine receptor 2B (Homo sapiens, UniProt P41595); format: functional, cell-based
[17] = target: T7, 5-hydroxytryptamine receptor 2B; format: functional, cell-based; remark: listed apart in the source
[18] = target: T7, 5-hydroxytryptamine receptor 2B; format: functional, cell-based; remark: listed apart in the source
[19] = target: T7, 5-hydroxytryptamine receptor 2B
[20] = target: T8, 5-hydroxytryptamine receptor 2C (Homo sapiens, UniProt P28335)
T8 sequence (P28335 whole entry): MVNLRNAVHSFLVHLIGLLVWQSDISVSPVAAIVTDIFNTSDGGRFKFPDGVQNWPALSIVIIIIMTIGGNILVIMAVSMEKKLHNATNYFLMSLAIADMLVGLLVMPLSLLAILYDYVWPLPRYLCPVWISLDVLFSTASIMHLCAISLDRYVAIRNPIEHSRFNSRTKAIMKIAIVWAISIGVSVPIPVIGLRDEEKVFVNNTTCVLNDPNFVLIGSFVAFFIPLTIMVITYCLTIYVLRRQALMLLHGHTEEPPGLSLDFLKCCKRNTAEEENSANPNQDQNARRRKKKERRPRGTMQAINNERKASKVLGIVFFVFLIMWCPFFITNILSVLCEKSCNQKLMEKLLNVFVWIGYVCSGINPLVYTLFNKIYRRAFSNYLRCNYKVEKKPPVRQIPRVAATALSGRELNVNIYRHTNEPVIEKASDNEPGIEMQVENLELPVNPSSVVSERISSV

[21] = target: T9, 5-hydroxytryptamine receptor 3A (Homo sapiens, UniProt P46098); format: functional
T9 sequence (P46098 whole entry): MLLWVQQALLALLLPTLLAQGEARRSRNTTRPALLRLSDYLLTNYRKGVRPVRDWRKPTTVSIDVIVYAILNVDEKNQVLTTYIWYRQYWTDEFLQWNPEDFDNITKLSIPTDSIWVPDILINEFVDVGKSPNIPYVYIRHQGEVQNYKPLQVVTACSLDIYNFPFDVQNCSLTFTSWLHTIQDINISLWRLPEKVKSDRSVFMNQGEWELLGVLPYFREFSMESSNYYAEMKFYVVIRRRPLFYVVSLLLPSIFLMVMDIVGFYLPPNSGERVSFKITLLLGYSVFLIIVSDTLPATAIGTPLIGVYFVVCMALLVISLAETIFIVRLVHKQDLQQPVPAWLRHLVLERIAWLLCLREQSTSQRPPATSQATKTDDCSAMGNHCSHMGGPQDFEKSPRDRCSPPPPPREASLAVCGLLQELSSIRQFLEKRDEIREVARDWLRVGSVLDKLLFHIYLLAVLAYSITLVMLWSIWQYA

[22] = target: Delta-type opioid receptor (Homo sapiens, UniProt P41143)
[23] = target: Kappa-type opioid receptor (Homo sapiens, UniProt P41145)
Mu-type opioid receptor [24] = target: T10, Mu-type opioid receptor (Homo sapiens, UniProt P35372)
[25] = target: T11, Sodium-dependent noradrenaline transporter (Homo sapiens, UniProt P23975)
[26] = target: T12, Sodium-dependent dopamine transporter (Homo sapiens, UniProt Q01959)
[27] = target: T12, Sodium-dependent dopamine transporter; remark: listed apart in the source
[28] = target: T11, Sodium-dependent noradrenaline transporter; remark: listed apart in the source
Mu-type opioid receptor [29] = target: T10, Mu-type opioid receptor; remark: listed apart in the source
[30] = target: T6, 5-hydroxytryptamine receptor 1A; remark: listed apart in the source
D(3) dopamine receptor [31] = target: T3, D(3) dopamine receptor; remark: listed apart in the source
D(1A) dopamine receptor [32] = target: T2, D(1A) dopamine receptor; remark: listed apart in the source
Further: assay procedure not described here.

T7 sequence (P41595 whole entry): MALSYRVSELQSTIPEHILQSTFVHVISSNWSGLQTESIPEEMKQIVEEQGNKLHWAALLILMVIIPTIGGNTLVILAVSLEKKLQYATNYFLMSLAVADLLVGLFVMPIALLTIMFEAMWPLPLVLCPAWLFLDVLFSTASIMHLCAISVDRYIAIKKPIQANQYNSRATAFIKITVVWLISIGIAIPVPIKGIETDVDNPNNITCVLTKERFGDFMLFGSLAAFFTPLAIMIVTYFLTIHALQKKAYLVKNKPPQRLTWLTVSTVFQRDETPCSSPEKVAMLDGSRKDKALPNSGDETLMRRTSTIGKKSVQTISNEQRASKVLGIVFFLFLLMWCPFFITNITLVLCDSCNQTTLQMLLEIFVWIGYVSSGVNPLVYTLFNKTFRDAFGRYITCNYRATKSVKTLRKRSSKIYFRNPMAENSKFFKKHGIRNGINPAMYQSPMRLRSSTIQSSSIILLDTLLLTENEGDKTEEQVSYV
T5 sequence (P62813 whole entry): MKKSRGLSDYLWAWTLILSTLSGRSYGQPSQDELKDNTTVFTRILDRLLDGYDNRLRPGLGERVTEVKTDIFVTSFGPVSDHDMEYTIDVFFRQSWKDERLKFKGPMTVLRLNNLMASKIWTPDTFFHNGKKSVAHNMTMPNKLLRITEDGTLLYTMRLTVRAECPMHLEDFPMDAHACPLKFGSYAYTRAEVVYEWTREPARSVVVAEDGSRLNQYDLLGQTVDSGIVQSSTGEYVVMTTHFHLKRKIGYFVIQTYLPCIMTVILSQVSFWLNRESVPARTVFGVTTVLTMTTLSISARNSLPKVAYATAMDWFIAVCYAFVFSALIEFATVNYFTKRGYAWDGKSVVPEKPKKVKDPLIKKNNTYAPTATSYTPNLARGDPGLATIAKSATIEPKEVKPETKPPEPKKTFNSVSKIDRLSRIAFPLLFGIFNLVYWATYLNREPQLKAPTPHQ
T2 sequence (P21728 whole entry): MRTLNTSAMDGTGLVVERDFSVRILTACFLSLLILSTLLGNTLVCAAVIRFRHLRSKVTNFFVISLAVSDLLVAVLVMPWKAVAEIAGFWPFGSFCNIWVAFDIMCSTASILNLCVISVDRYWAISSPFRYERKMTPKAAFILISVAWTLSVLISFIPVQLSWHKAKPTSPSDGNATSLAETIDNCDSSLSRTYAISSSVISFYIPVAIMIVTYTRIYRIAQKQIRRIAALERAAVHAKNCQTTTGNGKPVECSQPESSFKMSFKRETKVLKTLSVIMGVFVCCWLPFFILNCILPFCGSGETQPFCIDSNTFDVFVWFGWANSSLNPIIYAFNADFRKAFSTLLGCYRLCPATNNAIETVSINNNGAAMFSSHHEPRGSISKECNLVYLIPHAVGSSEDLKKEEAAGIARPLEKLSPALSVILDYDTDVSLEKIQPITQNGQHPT
T10 sequence (P35372 whole entry): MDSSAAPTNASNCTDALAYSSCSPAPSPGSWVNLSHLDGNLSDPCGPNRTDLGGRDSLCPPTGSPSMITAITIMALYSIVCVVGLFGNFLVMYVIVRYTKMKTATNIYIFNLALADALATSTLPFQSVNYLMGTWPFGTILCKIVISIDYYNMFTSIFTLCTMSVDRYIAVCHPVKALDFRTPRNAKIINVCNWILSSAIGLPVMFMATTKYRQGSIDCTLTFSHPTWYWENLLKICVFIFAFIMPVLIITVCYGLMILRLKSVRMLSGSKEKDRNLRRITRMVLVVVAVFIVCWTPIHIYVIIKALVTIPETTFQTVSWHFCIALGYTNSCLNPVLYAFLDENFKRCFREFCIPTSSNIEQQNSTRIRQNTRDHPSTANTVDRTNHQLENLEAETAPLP
T3 sequence (P35462 whole entry): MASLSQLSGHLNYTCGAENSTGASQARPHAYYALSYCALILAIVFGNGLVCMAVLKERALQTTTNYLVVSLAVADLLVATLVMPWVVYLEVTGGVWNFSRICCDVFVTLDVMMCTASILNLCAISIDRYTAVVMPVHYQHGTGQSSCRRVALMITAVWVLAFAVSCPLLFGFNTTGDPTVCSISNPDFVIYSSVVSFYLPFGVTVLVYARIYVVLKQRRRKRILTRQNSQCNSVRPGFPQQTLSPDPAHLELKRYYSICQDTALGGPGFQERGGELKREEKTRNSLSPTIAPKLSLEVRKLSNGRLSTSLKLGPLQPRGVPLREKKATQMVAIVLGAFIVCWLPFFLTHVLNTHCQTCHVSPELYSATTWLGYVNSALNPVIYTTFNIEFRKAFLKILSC
T12 sequence (Q01959 whole entry): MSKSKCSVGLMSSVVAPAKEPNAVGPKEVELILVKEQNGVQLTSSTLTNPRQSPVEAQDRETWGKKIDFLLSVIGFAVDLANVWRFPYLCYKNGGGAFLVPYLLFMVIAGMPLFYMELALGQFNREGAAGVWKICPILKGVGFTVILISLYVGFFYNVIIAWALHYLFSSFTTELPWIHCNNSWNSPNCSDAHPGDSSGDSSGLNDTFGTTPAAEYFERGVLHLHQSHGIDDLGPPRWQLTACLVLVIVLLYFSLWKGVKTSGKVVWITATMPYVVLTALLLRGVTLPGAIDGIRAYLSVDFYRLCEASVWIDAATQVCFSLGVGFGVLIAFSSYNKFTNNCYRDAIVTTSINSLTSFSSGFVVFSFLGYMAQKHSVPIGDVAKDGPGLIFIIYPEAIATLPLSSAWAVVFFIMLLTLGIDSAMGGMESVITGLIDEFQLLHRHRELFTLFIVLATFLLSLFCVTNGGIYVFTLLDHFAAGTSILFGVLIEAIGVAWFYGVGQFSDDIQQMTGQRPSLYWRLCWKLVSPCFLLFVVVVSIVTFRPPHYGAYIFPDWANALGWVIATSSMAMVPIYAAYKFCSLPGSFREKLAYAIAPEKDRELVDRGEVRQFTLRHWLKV
T1 sequence (P21554 whole entry): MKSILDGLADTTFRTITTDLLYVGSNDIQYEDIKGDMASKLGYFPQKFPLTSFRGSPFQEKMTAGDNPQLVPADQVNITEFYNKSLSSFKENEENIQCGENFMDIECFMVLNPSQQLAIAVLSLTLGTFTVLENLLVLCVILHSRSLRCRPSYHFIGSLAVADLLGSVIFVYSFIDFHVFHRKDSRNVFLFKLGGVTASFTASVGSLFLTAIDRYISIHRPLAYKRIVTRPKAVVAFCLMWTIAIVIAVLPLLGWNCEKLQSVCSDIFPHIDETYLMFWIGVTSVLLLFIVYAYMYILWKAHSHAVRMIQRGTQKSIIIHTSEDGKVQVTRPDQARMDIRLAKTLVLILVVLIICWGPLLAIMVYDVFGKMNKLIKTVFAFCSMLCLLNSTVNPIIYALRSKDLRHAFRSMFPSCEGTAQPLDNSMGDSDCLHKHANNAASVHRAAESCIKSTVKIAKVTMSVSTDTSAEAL
T11 sequence (P23975 whole entry): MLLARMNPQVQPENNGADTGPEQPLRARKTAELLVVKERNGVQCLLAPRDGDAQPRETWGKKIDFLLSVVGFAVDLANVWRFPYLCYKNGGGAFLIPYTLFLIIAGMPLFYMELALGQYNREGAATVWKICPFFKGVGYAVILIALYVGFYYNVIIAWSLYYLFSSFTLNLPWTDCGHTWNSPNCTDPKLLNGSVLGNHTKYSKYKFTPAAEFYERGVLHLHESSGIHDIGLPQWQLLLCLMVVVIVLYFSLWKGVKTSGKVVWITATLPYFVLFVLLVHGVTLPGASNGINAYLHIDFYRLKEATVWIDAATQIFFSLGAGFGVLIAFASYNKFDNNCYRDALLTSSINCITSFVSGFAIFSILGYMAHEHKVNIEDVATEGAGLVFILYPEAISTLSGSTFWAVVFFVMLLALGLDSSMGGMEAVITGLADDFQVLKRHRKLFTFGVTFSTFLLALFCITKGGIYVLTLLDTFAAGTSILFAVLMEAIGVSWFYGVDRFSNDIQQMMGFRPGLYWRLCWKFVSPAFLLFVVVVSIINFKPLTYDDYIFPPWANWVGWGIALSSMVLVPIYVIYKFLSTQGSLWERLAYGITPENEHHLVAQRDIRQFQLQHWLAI
Kappa-type opioid receptor, sequence (P41145 whole entry): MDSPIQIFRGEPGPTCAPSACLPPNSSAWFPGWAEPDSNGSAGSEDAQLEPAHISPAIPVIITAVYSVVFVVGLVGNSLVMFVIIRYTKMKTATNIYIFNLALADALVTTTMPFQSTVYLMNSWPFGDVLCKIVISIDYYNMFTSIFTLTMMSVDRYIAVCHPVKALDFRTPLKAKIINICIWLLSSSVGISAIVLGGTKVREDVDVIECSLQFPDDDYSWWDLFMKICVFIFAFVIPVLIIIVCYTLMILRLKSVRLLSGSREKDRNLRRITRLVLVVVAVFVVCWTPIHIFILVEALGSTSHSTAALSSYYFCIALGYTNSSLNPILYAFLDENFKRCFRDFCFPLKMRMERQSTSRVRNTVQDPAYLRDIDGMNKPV
Neuronal acetylcholine receptor subunit alpha-4, sequence (P43681 whole entry): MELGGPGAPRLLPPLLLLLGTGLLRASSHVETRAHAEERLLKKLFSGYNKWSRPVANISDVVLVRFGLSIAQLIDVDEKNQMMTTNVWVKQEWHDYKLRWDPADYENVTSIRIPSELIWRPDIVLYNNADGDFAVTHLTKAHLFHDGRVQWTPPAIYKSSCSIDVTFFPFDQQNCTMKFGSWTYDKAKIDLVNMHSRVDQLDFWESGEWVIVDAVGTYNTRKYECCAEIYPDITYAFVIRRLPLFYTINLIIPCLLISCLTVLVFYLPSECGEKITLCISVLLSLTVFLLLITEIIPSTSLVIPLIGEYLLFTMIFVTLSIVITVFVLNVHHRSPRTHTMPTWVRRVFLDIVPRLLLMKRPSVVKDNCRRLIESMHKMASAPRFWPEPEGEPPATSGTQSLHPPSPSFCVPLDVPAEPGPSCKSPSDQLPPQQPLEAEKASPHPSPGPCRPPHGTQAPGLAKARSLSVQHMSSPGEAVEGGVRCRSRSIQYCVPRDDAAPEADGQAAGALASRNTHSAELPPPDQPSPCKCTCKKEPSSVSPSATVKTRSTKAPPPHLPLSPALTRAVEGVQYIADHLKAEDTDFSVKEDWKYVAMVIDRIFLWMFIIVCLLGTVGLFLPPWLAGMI

In the case of `COC(=O)C1=C(C)NC(C)=C(C(=O)OC)C1c1ccccc1[N+](=O)[O-]` [NIFEDIPINE], the AC50 [1] is reported as over 10 µM, the AC50 [2] is reported as over 10 µM and the AC50 (Cannabinoid receptor 1 [3]) is reported as over 30 µM. The AC50 (Cannabinoid receptor 1 [4]) was over 10 µM, the AC50 (D(1A) dopamine receptor [5]) was over 10 µM and the AC50 (D(1A) dopamine receptor [6]) was 26 µM. The AC50 (D(1A) dopamine receptor [7]) was over 30 µM, the AC50 (D(3) dopamine receptor [8]) was over 30 µM and the AC50 (D(4) dopamine receptor) was over 10 µM. For the same compound, the AC50 [9] was over 10 µM, the AC50 [10] was over 30 µM and the AC50 [11] was over 10 µM. The AC50 [12] was over 10 µM, the AC50 [13] was over 10 µM and the AC50 [14] was over 10 µM. For the same compound, the AC50 [15] was over 30 µM, the AC50 [16] was over 10 µM and the AC50 [17] was over 30 µM. The AC50 [18] was 6.8 µM, the AC50 [19] was over 10 µM and the AC50 [20] was over 30 µM. The AC50 [21] was over 30 µM, the AC50 [22] was over 30 µM and the AC50 [23] was over 10 µM. The AC50 (Mu-type opioid receptor [24]) was over 30 µM, the AC50 [25] was over 30 µM and the AC50 [26] was over 30 µM. It also gave an AC50 [27] of over 10 µM, an AC50 [28] of over 10 µM and an AC50 (Mu-type opioid receptor [29]) of 11 µM. The AC50 [30] was over 10 µM, the AC50 (D(3) dopamine receptor [31]) was over 10 µM and the AC50 (D(1A) dopamine receptor [32]) was over 10 µM.
